Reference: patent US20190054051A1, “DOPA Formulations for Treatments of Parkinson's Disease” (The Board of Trustees of the Leland Stanford Junior …, priority 2017, published 2019)

Experiments:
p38 = test: Western blot of phospho p38 and total p38 in striatum; type: in vivo, mice
Experimental: After behavioral testing, mice again received their assigned injection and then, 45 minutes later, were decapitated under anesthesia. Tissue samples were processed as follows. Briefly, the brain was dissected, rapidly frozen on dry ice, and stored at −80° C. Striatal tissue was collected from 100 μm coronal slices cut at the level of striatum using a cryostat (Leica CM1950, Leica Biosystems Inc, Buffalo Groove, Ill.). Striatal samples from the intact and the lesioned hemisphere were separately collected in 150p1 of lysis solution (Totally RNA, Ambion, Austin, Tex.). Care was taken to make sure that the tissue samples were collected from similar regions in all the brain samples analyzed, since there are differences in the expression of GRKs from rostral to caudal CPu. […]
Western blots were quantified using band densitometry in Image J software (NIH version). […] Results are represented as group mean±SEM and analyzed using one-way or repeated-measures ANOVA (RM-ANOVA), with post hoc Bonferroni tests. The mouse cylinder test was analyzed with RM-ANOVA, with group (DOPA and DOPA-ranitidine formulations) as a between-group factor and saline vs. DOPA treatment as a within-group factor. AIMs scores were analyzed using the Kruskal Wallis test for pre-testing (DOPA injected animals) and the Mann-Whitney U test for the post-testing sessions (DOPA vs DOPA-ranitidine formulations). […]

ChAT = ChAT immunoreactivity (fluorescence intensity) in cholinergic interneurons; set-up: species or system mice; conditions: mouse, in vivo
Experimental: Immunohistochemical analysis was performed with commonly known procedures. Mice were transcardially perfused with ice-cold 4% paraformaldehyde in PBS 45 minutes after challenge with L-DOPA or DOPA-ranitidine formulations. The brain was dissected out, post-fixed in 4% PFA overnight at 4° C., and cryoprotected using 30% sucrose in PBS. Cryoprotected brains were stored at −80° C. For TH immunostaining 30 μm coronal sections were taken around both CPu and substantia nigra, to examine dopaminergic denervation at the level of striatum and neuronal cell body loss at the level of substantia nigra. For pERK, ChAT, FoxP and AFos B expression, only coronal sections at the level of striatum was used. Free-floating coronal sections were blocked in blocking buffer (PBS with 2% BSA, 0.3% TritonX-100) for 1 hr at room temperature with gentle rocking. Sections were then transferred to incubation solution (PBS with 1% BSA, 0.03% TritonX-100) and the respective primary antibody as shown in table 1 and incubated at 4° C. for 24-48 hrs with gentle shaking. The sections were mounted with fluorescein or DAPI containing mounting media and serial z stack images were taken using Zeiss laser scanning confocal microscope LSM 800 at Stanford Cell Sciences Imaging facility. […]

## N[C@@H](Cc1ccc(O)c(O)c1)C(=O)O [L-DOPA, L-3,4-dihydroxyphenylalanine]
p38
  p38 phosphorylation in the lesioned hemisphere: increased in the lesioned hemisphere only after DOPA treatment
ChAT
  ChAT immunoreactivity (FI), lesioned side versus intact side: slightly lower on the lesioned side than the intact side
